Counter-ions that a name gives are not always drawn.
These compounds were tested on ANGPTL3 (assay: RNA-seq of ANGPTL3 expression in compound-treated primary human hepatocytes). Details: additional compounds (Table 13), linear fold change.
Format: cell-based
Procedure: Human hepatocytes were obtained from two donors from Massachusetts General Hospital, namely MGH54 and MGH63, and one donor from Lonza, namely HUM4111B. Cryopreserved hepatocytes were cultured in plating media for 16 hours, transferred to maintenance media for 4 hours. Cultured on serum-free media for 2 hours, then a compound was added. The hepatocytes were maintained on the serum-free media for 16 hours prior to gene expression analysis. Primary human hepatocytes were stored in the vapor phase of a liquid nitrogen freezer (about −130° C.).
Human hepatocytes cultured as described above were plated in 24-well format, adding 375,000 cells per well in a volume of 500 ul plating medium. Four hours before treatment, cells were washed with PBS and the medium was changed to either: fresh maintenance medium (complete) or modified maintenance medium.
Compound stocks were prepared at 1000× final concentration and added in a 2-step dilution to the medium to reduce risk of a compound precipitating out of solution when added to the cells, and to ensure reasonable pipetting volumes. One at a time, each compound was first diluted 10-fold in warm (about 37° C.) modified maintenance medium (initial dilution=ID), mixed by vortexing, and the ID was diluted 100-fold into the cell culture (e.g. 5.1 ul into 1 well of a 24-well plate containing 0.5 mL medium). The plate was mixed by carefully swirling and after all wells were treated and returned to the incubator overnight. If desired, separate plates/wells were treated with vehicle-only controls and/or positive controls. If using multi-well plates, controls were included on each plate. After about 18 hours, cells were harvested for further analysis, e.g., ChIP-seq, RNA-seq, ATAC-seq, etc.
This protocol is a modified version of the following protocols: MagMAX mirVana Total RNA Isolation Kit User Guide (Applied Biosystems #MAN0011131 Rev B.0), NEBNext Poly(A) mRNA Magnetic Isolation Module (E7490), and NEBNext Ultra Directional RNA Library Prep Kit for Illumina (E7420) (New England Biosystems #E74901).
The MagMAX mirVana kit instructions (the section titled “Isolate RNA from cells” on pages 14-17) were used for isolation of total RNA from cells in culture. Two hundred μl of Lysis Binding Mix was used per well of the multiwell plate containing adherent cells (usually a 24-well plate).
For mRNA isolation and library prep, the NEBNext Poly(A) mRNA Magnetic Isolation Module and Directional Prep kit was used. RNA isolated from cells above was quantified, and prepared in […] of each sample in 50 μl of nuclease-free water. This protocol may be run in microfuge tubes or in a 96-well plate.
All pass filter reads from each sample were mapped against the human genome (assembly GRCh38/GCA_000001405.15 “no alt” analysis set merged with hs38d1/GCA_000786075.2) using two pass mapping via STAR version 2.5.3a (alignment parameters alignIntronMin=20; alignIntronMax=1000000; outFilterMismatchNmax=999; outFilterMismatchNoverLmax=0.05; outFilterType=BySJout; outFilterMultimapNmax=20; alignSJoverhangMin=8; alignSJDBoverhangMin=1; alignMatesGapMax=1000000) (Dobin et al., Bioinformatics (2012) 29(1):15-21). Genomic alignments were converted to transcriptome alignments based on reference transcript annotations from the Human GENCODE Gene Set release 24 (Harrow et al., Genome Res. (2012) 22(9): 1760-1774). Using unique and multimapped transcriptomic alignments, gene-level abundance estimates were computed using RSEM version 1.3.0 (Li and Dewey, BMC Bioinformatics (2011) 12:323) in a strand-aware manner, and including confidence interval sampling calculations, to arrive at posterior mean estimates (PME) of abundances (counts and normalized FPKM—fragments per kilobase of exon per million mapped fragments) from the underlying Bayesian model. Standard QC were applied (read integrity, mapping statistics, library complexity, fragment bias) to remove unsatisfactory samples.

Compared with `Cl.Clc1cccc(N2CCNCC2)c1` [1(3-Chlorophenyl)piperazine HCl], `CC(=O)c1ccc2c(c1)N(CCCN1CCC(CCO)CC1)c1ccccc1S2` [Piperacetazine] is lower in “ANGPTL3-LINEAR FOLD CHANGE” value: 0.4414 for the first, 0.4033 for the second.

Going from `CCN1CCN(Cc2ccc(-c3cc4c(N[C@H](C)c5ccccc5)ncnc4[nH]3)cc2)CC1` [AEE788 (NVP-AEE788)] to `C[C@@H](Oc1cc(-n2cnc3ccc(CN4CCN(C)CC4)cc32)sc1C(N)=O)c1ccccc1C(F)(F)F` [GSK461364], the “ANGPTL3-LINEAR FOLD CHANGE” value rises from 0.1684 to 0.3078.

Compared with `COc1cc(N2CCC(N3CCN(C)CC3)CC2)ccc1Nc1ncnc(Nc2ccccc2S(=O)(=O)C(C)C)n1` [ASP3026], `CC[C@@H]1C(=O)N(C)c2cnc(Nc3ccc(C(=O)NC4CCN(C)CC4)cc3OC)nc2N1C1CCCC1` [BI 2536] is lower in “ANGPTL3-LINEAR FOLD CHANGE” value: 0.3923 for the first, 0.2045 for the second.

Compared with `N#Cc1ccc2[nH]c(O)c(-c3ccc(CN4CCOCC4)cn3)c2c1` [AZD1080], `COc1cc2c(Oc3ccc(NC(=O)C4(C(=O)Nc5ccc(F)cc5)CC4)cc3F)ccnc2cc1OCCCN1CCOCC1` [Foretinib (GSK1363089), Foretinib] is higher in “ANGPTL3-LINEAR FOLD CHANGE” value: 0.2238 for the first, 0.3368 for the second.

Going from `COc1cc(C)c(/C=C/C(C)=C/C=C/C(C)=C/C(=O)O)c(C)c1C` [Acitretin] to `COc1cc(C(=O)NS(=O)(=O)c2ccccc2C)ccc1Cc1cn(C)c2ccc(NC(=O)OC3CCCC3)cc12` [Zafirlukast], the “ANGPTL3-LINEAR FOLD CHANGE” value falls from 0.4763 to 0.4506.

Going from `Nc1ncn([C@@H]2O[C@H](CO)[C@@H](O)[C@H]2O)c(=O)n1` [Azacitidine] to `CCn1c(=O)c(-c2cc[nH]n2)cc2c(C)nc(N)nc21` [Voxtalisib (XL765, SAR245409), Voxtalisib], the “ANGPTL3-LINEAR FOLD CHANGE” value rises from 0.2316 to 0.4175.

Going from `CC(C)NC(=O)C1CCC(n2c(NC(=O)c3ccc(F)cc3)nc3ccc(CN4CCC(C(C)(C)O)CC4)cc32)CC1` (stereo not drawn) [Belizatinib (TSR-011), Belizatinib] to `C[C@@H]1CN(Cc2ccc(F)cc2)[C@@H](C)CN1C(=O)c1cc2c(C(=O)C(=O)N(C)C)cn(C)c2cc1Cl` [SCIO-469], the “ANGPTL3-LINEAR FOLD CHANGE” value rises from 0.3121 to 0.3711.

Compared with `COCCOCOc1cc2ccc(-c3ccc(C(=O)O)cc3)cc2cc1C12CC3CC(CC(C3)C1)C2` [CD 2665], `Cc1c(C(=O)Nc2ccc(N3C[C@@H](C)O[C@@H](C)C3)nc2)cccc1-c1ccc(OC(F)(F)F)cc1` [Sonidegib (Erismodegib, NVP-LDE225), Sonidegib] is higher in “ANGPTL3-LINEAR FOLD CHANGE” value: 0.395 for the first, 0.4897 for the second.

Going from `NC(=O)N[C@@H](CCC(=O)O)C(=O)O` [Carglumic Acid] to `NCCC(O)(P(=O)(O)O)P(=O)(O)O` [Pamidronate], the “ANGPTL3-LINEAR FOLD CHANGE” value falls from 0.1975 to 0.1528.

Compared with `C[C@@H](NCCCc1cccc(C(F)(F)F)c1)c1cccc2ccccc12` [Cinacalcet HCl], `O=C(O)Cc1cccc(OCCCN(Cc2cccc(C(F)(F)F)c2Cl)CC(c2ccccc2)c2ccccc2)c1` [GW3965] is higher in “ANGPTL3-LINEAR FOLD CHANGE” value: 0.3789 for the first, 2.071 for the second.

Compared with `O=C(c1ccc(F)c(F)c1Nc1ccc(I)cc1F)N1CC(O)([C@@H]2CCCCN2)C1` [Cobimetinib (GDC-0973, RG7420), Cobimetinib], `NC(=O)c1ccc(N(C(N)=O)c2c(F)cccc2F)nc1-c1ccc(F)cc1F` [VX-702] is higher in “ANGPTL3-LINEAR FOLD CHANGE” value: 0.2333 for the first, 0.4353 for the second.

First: CO[C@H]1C[C@@H]2CC[C@@H](C)[C@@](O)(O2)C(=O)C(=O)N2CCCC[C@H]2C(=O)O[C@H]([C@H](C)C[C@@H]2CC[C@@H](OCCO)[C@H](OC)C2)CC(=O)[C@H](C)/C=C(\C)[C@@H](O)[C@@H](OC)C(=O)[C@H](C)C[C@H](C)/C=C/C=C/C=C/1C [Everolimus (RAD001), Everolimus]
Second: CCC(C)(C)C(=O)O[C@H]1C[C@@H](C)C=C2C=C[C@H](C)[C@H](CC[C@@H]3C[C@@H](O)CC(=O)O3)[C@H]21 [Simvastatin]
The “ANGPTL3-LINEAR FOLD CHANGE” value of the first is higher: 0.483 for the first, 0.2588 for the second.

First: Cc1cnc(Nc2ccc(OCCN3CCCC3)cc2)nc1Nc1cccc(S(=O)(=O)NC(C)(C)C)c1 [Fedratinib (SAR302503, TG101348), Fedratinib]
Second: C=CC(=O)Nc1cccc(Oc2nc(Nc3ccc(N4CCN(C)CC4)cc3)nc3ccsc23)c1 [Olmutinib (HM61713, BI 1482694), Olmutinib]
The “ANGPTL3-LINEAR FOLD CHANGE” value of the first is lower: 0.1119 for the first, 0.3057 for the second.

Compared with `COCCCC/C(=N\OCCN)c1ccc(C(F)(F)F)cc1` [Fluvoxamine maleate], `N=C(N)c1ccc(OCCCCCOc2ccc(C(=N)N)cc2)cc1` [Pentamidine isethionate] is lower in “ANGPTL3-LINEAR FOLD CHANGE” value: 0.3231 for the first, 0.1321 for the second.

Compared with `CCNC(=O)Nc1ccc(-c2nc3c(c(N4CCOC[C@@H]4C)n2)CCN(C2COC2)C3)cc1` [GDC-0349], `CNc1nc(-c2ccc3c(N)n[nH]c3c2)cc(N2C[C@@H](C(=O)NC3CCCCC3)CC[C@H]2C)n1` [GSK2334470] is higher in “ANGPTL3-LINEAR FOLD CHANGE” value: 0.4506 for the first, 0.4538 for the second.

Going from `c1ccc2c(CCNc3ccc(Nc4ccncc4)cc3)c[nH]c2c1` [JNJ-26854165 (Serdemetan), Serdemetan] to `O=C(O)c1ccc(Nc2ncc3c(n2)-c2ccc(Cl)cc2C(c2c(F)cccc2F)=NC3)cc1` [MLN8054], the “ANGPTL3-LINEAR FOLD CHANGE” value rises from 0.1817 to 0.2755.

Going from `Cc1c(OCC(F)(F)F)ccnc1C[S+]([O-])c1nc2ccccc2[nH]1` (stereo not drawn) [Lansoprazole] to `O=C1CCc2c(Oc3ccc4c(c3)[C@@H]3[C@H](O4)[C@H]3c3nc4ccc(C(F)(F)F)cc4[nH]3)ccnc2N1` [Lifirafenib (BGB-283), Lifirafenib], the “ANGPTL3-LINEAR FOLD CHANGE” value falls from 0.4763 to 0.3585.

Going from `FC(F)(F)c1ccc(/C=C/c2nc(COc3ccc(CCCCn4ccnn4)cc3)co2)cc1` [Mubritinib (TAK 165), Mubritinib] to `CC(C)(O)CC(=O)NCCn1ccc2ncnc(Nc3ccc(Oc4cccc(C(F)(F)F)c4)c(Cl)c3)c21` [TAK-285], the “ANGPTL3-LINEAR FOLD CHANGE” value rises from 0.3392 to 0.3842.

Going from `COc1cc(N)c(Cl)cc1C(=O)NC1CCNCC1OC` (stereo not drawn) [NORCISAPRIDE HYDROCHLORIDE] to `CNC(=O)c1ccc(C)c(-n2c(C)cc(OCc3ccc(F)cc3F)c(Br)c2=O)c1` [PH-797804], the “ANGPTL3-LINEAR FOLD CHANGE” value falls from 0.3763 to 0.2736.

Going from `[H]/N=C(\N/C(=N/[H])Nc1ccc(Cl)cc1)NC(C)C` [Proguanil] to `O=C(CCCCCCC(=O)Nc1ccccc1)NO` [Vorinostat (SAHA, MK0683), Vorinostat], the “ANGPTL3-LINEAR FOLD CHANGE” value falls from 0.3536 to 0.3511.

Going from `CCC[C@@H]1CC2=CC(=O)CC[C@]2(C)[C@H]2CC[C@@]3(C)[C@@H](CC[C@@]3(O)CCC(=O)[O-])[C@H]12.[K+]` [RU 28318] to `C/C=C1\NC(=O)[C@H]2CSSCC/C=C/[C@H](CC(=O)N[C@H](C(C)C)C(=O)N2)OC(=O)[C@H](C(C)C)NC1=O` [Romidepsin (FK228, Depsipeptide), Romidepsin], the “ANGPTL3-LINEAR FOLD CHANGE” value falls from 0.4005 to 0.1349.

First: Cc1nc2n(c(=O)c1CCN1CCC(c3noc4cc(F)ccc34)CC1)CCCC2 [Risperidone]
Second: COCCn1c2c([n+](Cc3cnccn3)c1C)C(=O)c1ccccc1C2=O [YM155 (Sepantronium Bromide), Sepantronium Bromide]
The “ANGPTL3-LINEAR FOLD CHANGE” value of the first is lower: 0.3231 for the first, 0.3487 for the second.

First: Cc1cc(C)c(/C=C2\C(=O)Nc3ccccc32)[nH]1 [Semaxinib, Semaxanib]
Second: CCc1nc(-c2cccc(C)c2)c(-c2ccnc(NC(=O)c3ccccc3)c2)s1 [TAK-715]
The “ANGPTL3-LINEAR FOLD CHANGE” value of the first is lower: 0.2449 for the first, 0.4538 for the second.

Going from `CC(C)(Sc1cc(C(C)(C)C)c(O)c(C(C)(C)C)c1)Sc1cc(C(C)(C)C)c(OC(=O)CCC(=O)O)c(C(C)(C)C)c1` [Succinobucol] to `CC/C(=C(\c1ccccc1)c1ccc(OCCN(C)C)cc1)c1ccccc1` [Tamoxifen], the “ANGPTL3-LINEAR FOLD CHANGE” value falls from 0.3896 to 0.2606.
